Measurements reported in article PMC6540222, “Small Molecule Inhibitors of KDM5 Histone Demethylases Increase the Radiosensitivity of Breast Cancer Cells Overexpressing JARID1B” (Molecules, 2019).

Key:
[1] = biological target: KDM5D (Homo sapiens, UniProt Q9BY66); assay: Surface Plasmon Resonance (SPR), immobilized KDM5D; format: binding; settings: KDM5D immobilized on COOH5 sensorchip, buffer HSP-1%D, analyte 6.25-100 μM
Protocol: Surface Plasmon Resonance (SPR) experiments were carried out using a SensiQ Pioneer system (ICx Nomadics, Stillwater, OK, USA). Immobilization of ligand (KDM5D) was carried out essentially as in Ilari et al.. The sensor chip (COOH5) was activated chemically by a 100 µL injection of a 1:1 mixture of N-ethyl-N′-(3-([…])carbodiimide (200 mM) and N-hydroxysuccinimide (50 mM) at a flow rate of 5 µL/min. KDM5D was immobilized on activated sensor chips via amine coupling. The immobilization was carried out in 20 mM sodium acetate at pH 4.5; the remaining unreacted groups were blocked by injecting 1 M ethanolamine hydrochloride (100 µL). The amount of immobilized KDM5D was detected by mass concentration-dependent changes in the refractive index on the sensor chip surface and corresponded to about 11,000 resonance units (RU); an empty flow cell was used as a reference. Analytes, i.e., inhibitors RS3152, RS3183, RS3195, RS4995 and RS5033 were dissolved in DMSO at a concentration of 10 mM and diluted in HSP buffer (10 mM Hepes pH 7.4, 150 mM NaCl + 0.005% surfactant P20) to yield 100 μM inhibitor concentration in HSP + 1% DMSO (HSP-1%D). The analytes were automatically diluted in HSP-1%D and injected on the sensorchip for 120 s at a constant flow (30 µL/min); analyte concentrations were: (1) 6.25 μM; (2) 12.5 μM; (3) 25 μM; (4) 50 μM; (5) 100 μM. The increase in RU relative to baseline indicates complex formation; the plateau region represents the steady-state phase of the interaction, whereas the decrease in RU after 120 s represents dissociation of analytes from immobilized KDM5 after injection of buffer HSP-1%D. The sensorgrams were analysed using the SensiQ Qdat 4.0 program and using simple Scatchard plots.

[2] = system: H3K4me3 levels in MCF-7 cells; assay: Western blotting of H3K4me3 levels in bulk chromatin; format: cell-based, human; settings: MCF7 bulk chromatin, 24 h
Protocol: Histone isolation was performed according to acid extraction of histones protocol of Shechter and colleagues. Histone concentration was determined by running 5 μL of samples and known concentrations of commercially available purified calf thymus histones (from Sigma Aldrich Cat. #000000010223565001) on a SDS-PAGE gel. The gel is stained with Coomassie blue G 250 (BIO-RAD Cat. #161-0786) for 1 hour at room temperature and then destained in distilled water. The gel image is acquired with ChemiDoc XRS+ Imaging System (Bio-Rad, Hercules, CA, USA) and the volumes of bands of the samples are compared to standard concentrations of calf thymus histone.
(§1) Proteins were resolved on a 12% (histones) or 5% (JARID1B) denaturing polyacrylamide gel, using either 4 μg of histone preparation or 40 μg of cell lysate. After electrophoresis, proteins were transferred on a nitrocellulose membrane (Protran™ […] NC, # 10600002, GE Healthcare (Amersham™), Chicago, IL, USA) via wet transfer method using a Bio-Rad tank. Transfer efficiency was verified via ponceau staining (#P7767, Sigma-Aldrich). Filters were blocked with either milk (#70166, Sigma-Aldrich) or bovine serum albumin (#A3069, Sigma-Aldrich) and then hybridized over night at 4 °C in gentle rotation with the following antibodies: rabbit anti-H3K4me3 (1:1000, #39915, Active Motif, RRID:AB_2687512); rabbit-anti-H3K27me3 (1:1000, #9733, Cell Signaling Technology, RRID:AB_2616029); rabbit-anti- H3K9pan-methylated (1:1000, #4473, RRID:AB_10544693); rabbit-anti-H3 ([…], Cat#1791, ABCAM, RRID:AB_302613); rabbit anti-H2AX (1:1000, Cat#7631, Cell Signaling Technology, RRID:AB_10860771), rabbit anti-Phospho-H2AX (1:1000, Cat#9718, Cell Signaling Technology, RRID:AB_2118009), rabbit anti-JARID1B (1:50, Cell Signaling Technology, Cat#3273 RRID: AB_1264191). Goat-anti-Rabbit Horseradish Peroxidase conjugated (1:10,000, #31460, Thermo Fisher Scientific, Waltham, MA, USA RRID:AB_228341) was used as secondary antibody for 1 hour hybridization at room temperature. Blots were scanned and analyzed with a ChemiDoc XRS+ Imaging System (Bio-Rad). The volumes of each band of protein was acquired using Bio-Rad’s ImageLab software by means of volume tools using global quantification. The signal for each protein was normalized to the housekeeping protein and ratios with average control values were determined. For histones as loading control was used either total histone H3 detected by a specific antibody or histone H1 levels by staining the upper part of the gel properly cut before protein transfer on nitrocellulose membrane.

[3] = system: MCF-7 cells; assay: Flow-cytometry analysis of cell cycle distribution; format: cell-based, human; settings: MCF-7, same range of concentrations as H3K4me3 test (not shown)
Protocol: Flow-cytometry analysis of DNA content was carried out using an EPICS xl flow-cytometer (Beckman-Coulter, Brea, CA, USA). DMSO and inhibitor treated MCF-7 cells were trypsinized, pelleted, washed with PBS and finally resuspended in PBS containing 0.1% Triton-X-100 (#A1388.1000, AppliChem, Darmstadt, Germany) and 40 μg/mL propidium iodide (#P-4170, Sigma). After 20 min incubation at 37 °C the samples were analyzed. 10,000 events were acquired for each sample. Acquired data were analyzed using the WinMDI software by Joe Trotter, available at http://facs.scripps.edu.

[4] = system: MCF-7 cells; assay: CCK-8 viability assay after X-ray irradiation; format: cell-based, human; settings: MCF-7 irradiated with 3 Gy, all concentrations tested, compared to DMSO control, CCK-8 48 h post irradiation
Protocol: The cytoxicity assay was performed with Cell Counting Kit-8 (#96992, Sigma-Aldrich) according to the manufacturer’s instructions. 100 µL of MCF-7 T47D or MDA-MB231 cell suspension (5000 cells/well) was dispensed in a 96-well plate. After 24 h, inhibitor or DMSO was added in growth medium and then cells were irradiated. 48 h post irradiation, 10 μL of CCK-8 solution was added to each well of the plate and incubated again for 1 h. Incubate the plate for 1–4 h in the incubator. The absorbance at 450 nm was read using a VICTOR2 1420 reader (Perkin Elmer Wallac, Waltham, MA, USA). The absorbance at 450 nm of each sample, which is proportional to the number of viable cells, was first normalized on the same value of absorbance of blank (a well with only growth medium). The absorbance of each dose of radiation (sham, 0.3, 1 and 3 Gy) was normalized to the corresponding DMSO control and then, for each concentration of inhibitors, these values were normalized to the corresponding sham control.

[5] = system: MCF-7 cells; assay: Clonogenic assay after X-ray irradiation; format: cell-based, human; settings: MCF-7, 0.03 μM, 3 and 10 Gy, compared to DMSO control
Protocol: One hour after treatment with inhibitors, cells were exposed to X-ray using a MLG 300/6-D apparatus (Gilardoni, Lecco, Italy) set to […] and 6 mA, in order to produce an equivalent absorbed dose of 1cGy/s. Afterwards, cells were harvested, counted and then diluted in inhibitor containing growth medium. Appropriate cell numbers were seeded in quadruplicate according to the doubling time of the cell line and to radiation dose. 24 h after this seeding, the medium with inhibitor was replaced with fresh DMEM and cells were then incubated for 14 days (enough time to allow at least six cell divisions). After this period of growth, cells were washed twice with PBS and then fixed and stained with a suitable volume of a solution made of 0.3% Methylene Blue and 80% Ethanol for 30 min at room temperature. After washing cells twice with ddH2O, plates were pictured with ChemiDoc XRS+ Imaging System (Bio-Rad) in colorimetric mode. Colonies were detected using Fiji software, with the “Find maxima” function setting a background noise threshold of 3000. Radiation-dose response curveS to X-ray for DMSO and inhibitor samples were calculated using surviving fraction. Plating efficiency and surviving fraction were calculated as follows:Plating efficiency = number of colonies counted/number of cells plated Surviving fraction = Plating efficiency/plating efficiency of shame sample

[6] = system: γ-H2AX levels in MCF-7 cells; assay: Western blotting of H2AX phosphorylation after irradiation; format: cell-based, human; settings: RS5033 10 μM, KDOAM-25 0.03 μM
Protocol: as §1

[7] = system: KDM5A-D; settings: in vitro, toward KDM5 enzymes; ref Tumber et al. [49]; cited from earlier work
[8] = system: panel of 55 receptors and enzymes; parameters: method as in PMID 28262558; settings: cited from earlier work
[9] = system: MM1S multiple myeloma cells; parameters: method as in PMID 28262558; settings: cited from earlier work

Sequence of KDM5D (Q9BY66 whole entry): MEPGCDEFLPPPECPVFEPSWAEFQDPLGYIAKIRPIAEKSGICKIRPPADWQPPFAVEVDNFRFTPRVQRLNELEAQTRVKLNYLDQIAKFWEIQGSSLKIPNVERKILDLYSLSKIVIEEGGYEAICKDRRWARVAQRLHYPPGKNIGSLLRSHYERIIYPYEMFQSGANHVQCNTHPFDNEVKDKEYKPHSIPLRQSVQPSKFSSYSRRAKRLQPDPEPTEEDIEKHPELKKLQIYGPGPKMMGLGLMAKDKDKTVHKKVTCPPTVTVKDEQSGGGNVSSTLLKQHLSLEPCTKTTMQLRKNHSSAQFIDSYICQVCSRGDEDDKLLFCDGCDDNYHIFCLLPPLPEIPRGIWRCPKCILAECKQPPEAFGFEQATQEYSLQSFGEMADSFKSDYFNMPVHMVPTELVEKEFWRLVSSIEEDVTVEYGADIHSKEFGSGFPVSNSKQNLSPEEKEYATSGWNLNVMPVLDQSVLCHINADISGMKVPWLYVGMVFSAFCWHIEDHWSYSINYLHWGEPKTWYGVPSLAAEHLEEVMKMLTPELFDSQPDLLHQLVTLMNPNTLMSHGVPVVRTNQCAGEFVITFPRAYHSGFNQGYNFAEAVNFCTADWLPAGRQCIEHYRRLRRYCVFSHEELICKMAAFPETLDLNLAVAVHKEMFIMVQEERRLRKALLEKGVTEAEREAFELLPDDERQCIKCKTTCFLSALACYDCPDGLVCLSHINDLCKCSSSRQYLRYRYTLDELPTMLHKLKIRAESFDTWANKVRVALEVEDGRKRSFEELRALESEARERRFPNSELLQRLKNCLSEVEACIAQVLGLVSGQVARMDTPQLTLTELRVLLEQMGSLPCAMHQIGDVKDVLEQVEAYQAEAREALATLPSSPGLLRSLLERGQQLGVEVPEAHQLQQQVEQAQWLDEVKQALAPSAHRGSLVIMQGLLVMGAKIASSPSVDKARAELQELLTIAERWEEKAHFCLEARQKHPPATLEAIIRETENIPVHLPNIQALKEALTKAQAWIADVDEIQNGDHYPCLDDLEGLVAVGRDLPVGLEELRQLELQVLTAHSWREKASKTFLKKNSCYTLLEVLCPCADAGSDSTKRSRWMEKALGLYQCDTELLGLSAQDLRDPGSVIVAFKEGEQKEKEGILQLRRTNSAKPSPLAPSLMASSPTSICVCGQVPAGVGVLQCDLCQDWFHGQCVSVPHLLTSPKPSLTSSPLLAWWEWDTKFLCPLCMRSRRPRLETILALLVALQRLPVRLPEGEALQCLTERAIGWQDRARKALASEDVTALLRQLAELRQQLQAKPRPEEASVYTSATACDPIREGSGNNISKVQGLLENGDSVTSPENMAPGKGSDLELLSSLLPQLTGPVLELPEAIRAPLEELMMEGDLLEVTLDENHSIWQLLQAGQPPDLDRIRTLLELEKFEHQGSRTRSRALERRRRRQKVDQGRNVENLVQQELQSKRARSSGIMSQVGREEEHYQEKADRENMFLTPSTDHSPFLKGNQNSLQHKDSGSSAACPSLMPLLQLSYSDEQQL

CCOC(=O)c1ccccc1C(=O)c1ccc(NS(=O)(=O)c2ccc(Br)cc2)cc1 [RS4995]
Kd [1]: 38 ± 3 µM

COc1ccc(S(=O)(=O)Nc2cccc(C(=O)n3cccc3)c2)cc1 [RS3152]
Kd [1]: 62 ± 5 µM

CCN(CCN(C)C)C(=O)CNCc1cc(C(N)=O)ccn1 [KDOAM-25, reference compound]
increase of H3K4 tri-methylation ([2]; 0.03–1 μM): around 1.5 fold
increase of H3K4 tri-methylation at higher concentrations ([2]; concentrations above 1 μM): the effect is lost
effect on cell cycle [3]: does not show any significant effect
reduction of viable cells [4]: 20–35%
proliferative capacity (clonogenic survival) [5]: slight but significant decrease
ɤH2AX increase normalized to the amount of H2AX ([6]; MCF-7, 6 Gy, 4-36 h): not significant
amount of ɤH2AX ([6]; MCF-7, sham-irradiated and irradiated (6 Gy) cells): increases
IC50 [7]: < 0.1 µM
off-target activity [8]: no off-target activity
proliferation of MM1S multiple myeloma cells [9]: block proliferation

COc1ccc(S(=O)(=O)Nc2cccc(C(=O)O)c2)cc1 [RS3183]
Kd [1]: 150 ± 15 µM
